Molecular target: T1, Pol theta (1-899) (Homo sapiens, UniProt O75417)
T1 construct: Pol theta (1-899) (5 nM) in assay buffer
Test: Pol theta ATPase activity, NADH oxidation-coupled enzymatic assay (ATPase NADH coupling: Standard Screening: hPolQ)
Assay type: biochemical
Conditions: Pol theta (1-899) 5 nM, NADH oxidation-coupled ATPase assay; compounds of Table 3
Method: The ability of the compounds of Formula (I) or Table 1 to inhibit ATPase activity of Pol theta (1-899) was determined using the assay described below. Pol Theta ATPase activity was determined by measuring the rate of ATP turn over in a NADH oxidation-coupled enzymatic assay. 10-point dilution series of compounds were used in a 384 well format for the inhibition assays. Pol theta (1-899) (5 nM) in assay buffer (20 mM Tris HCl (pH 7.80), 80 mM KCl, 10 mM MgCl2, 1 mM DTT, 0.01% BSA, 0.01% Tween, 5% glycerol) was transferred to the test wells (20 μL), except the low control wells (20 μL of assay buffer was added to the low control wells). The plate was then incubated at room temperature for 15 min. An equal volume (20 μL) of 100 μM ATP, 300 nM […] (single-stranded DNA (ssDNA) containing 50 thymine bases), 300 μM NADH, 6 mM PEP, 10 U/mL lactate dehydrogenase and 20 U/mL pyruvate kinase in assay buffer was added to all the test wells. The plate was then centrifuged at 1000 rpm for 1 min. The reaction was monitored for 60 min by measuring absorbance (λ=340 nm) in a Tecan Spark multimode plate reader every minute. The high control (DMSO with enzyme) with low absorbance intensity represents no inhibition of ATPase reaction while the low control (DMSO with buffer) with high absorbance intensity represents full inhibition of ATPase activity. Slope of the reaction progress curves were used to calculate the rate of ATP hydrolysis. The rates were used to determine the percent inhibition using a four-parameter inhibition model to generate IC50, Hill slope and max inhibition.

T1 sequence (O75417 1-899): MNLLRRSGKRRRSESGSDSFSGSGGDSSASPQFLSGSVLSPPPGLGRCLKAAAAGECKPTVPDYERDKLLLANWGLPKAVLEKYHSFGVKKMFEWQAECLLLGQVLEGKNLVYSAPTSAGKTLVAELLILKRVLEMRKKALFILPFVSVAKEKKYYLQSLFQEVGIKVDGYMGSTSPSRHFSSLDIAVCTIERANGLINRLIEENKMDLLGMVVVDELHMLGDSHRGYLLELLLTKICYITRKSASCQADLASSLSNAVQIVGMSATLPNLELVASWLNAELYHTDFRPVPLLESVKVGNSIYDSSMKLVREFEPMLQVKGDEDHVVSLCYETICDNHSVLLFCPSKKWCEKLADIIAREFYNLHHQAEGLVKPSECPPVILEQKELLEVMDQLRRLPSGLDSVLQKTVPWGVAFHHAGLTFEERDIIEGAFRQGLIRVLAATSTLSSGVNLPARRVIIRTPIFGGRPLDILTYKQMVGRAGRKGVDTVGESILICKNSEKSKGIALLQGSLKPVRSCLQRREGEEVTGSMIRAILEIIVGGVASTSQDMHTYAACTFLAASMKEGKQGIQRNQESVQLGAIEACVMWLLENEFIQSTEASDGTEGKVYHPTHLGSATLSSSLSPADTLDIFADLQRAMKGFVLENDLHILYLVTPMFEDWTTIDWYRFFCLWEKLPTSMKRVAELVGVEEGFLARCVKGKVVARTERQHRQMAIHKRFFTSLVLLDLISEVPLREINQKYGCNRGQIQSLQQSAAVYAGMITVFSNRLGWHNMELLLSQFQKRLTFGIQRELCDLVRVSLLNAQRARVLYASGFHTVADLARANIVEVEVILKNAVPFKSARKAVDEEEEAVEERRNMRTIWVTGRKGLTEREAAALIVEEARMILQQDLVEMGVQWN

IC50 [nM] | SMILES
500 to 1000 | COc1nnc(NC(=O)c2cnc(C)cc2-c2cc(F)cnc2OC)s1 [Example 431, 5-fluoro-2-methoxy-N-(5-methoxy-1,3,4-thiadiazol-2-yl)-6′-methyl-[3,4′-bipyridine]-3′-carboxamide]
≤ 200 | COc1cnc(C)cc1-c1cc(C)ncc1C(=O)Nc1nnc(O[C@H]2COC[C@@H]2OC(C)C)s1 [Example 246]
1000 to 10000 | COc1nnc(NC(=O)c2cnc(C)cc2-c2cnc(N)c(C#N)c2)s1 [Example 362, 6-amino-5-cyano-N-(5-methoxy-1,3,4-thiadiazol-2-yl)-6′-methyl-[3,4′-bipyridine]-3′-carboxamide]
500 to 1000 | CC[S@+]([O-])c1cc(OC)c(-c2cc(C)ncc2C(=O)Nc2nnc(OC)s2)cc1Cl (single isomer, unassigned) [Example 312]
≤ 200 | COc1cnc(C)cc1-c1cc(C)ncc1C(=O)Nc1nnc(OC2COCC2NCC2CC2)s1 (stereo not drawn) [Example 249, N-(5-((4-((cyclopropylmethyl)amino)tetrahydrofuran-3-yl)oxy)-1,3,4-thiadiazol-2-yl)-5′-methoxy-2′,6-dimethyl-[4,4′-bipyridine]-3-carboxamide]
500 to 1000 | COc1cc(C)cc(-c2cc(C)ncc2C(=O)Nc2nnc(OC)s2)c1 [Example 422, N-(5-methoxy-1,3,4-thiadiazol-2-yl)-4-(3-methoxy-5-methylphenyl)-6-methylpyridine-3-carboxamide]
500 to 1000 | COc1nnc(NC(=O)c2cnc(C)cc2-c2ccccc2C)s1 [Example 389, N-(5-methoxy-1,3,4-thiadiazol-2-yl)-6-methyl-4-(2-methylphenyl)pyridine-3-carboxamide]
≤ 200 | COc1cnc(Cl)cc1-c1cc(C)ncc1C(=O)Nc1nnc(OC2([C@H]3CCOC3)CC2)s1 (single isomer, unassigned) [Example 297]
1000 to 10000 | COc1nnc(NC(=O)c2cnc(C)cc2-c2cncc(C#N)c2)s1 [Example 334, 5-cyano-N-(5-methoxy-1,3,4-thiadiazol-2-yl)-6′-methyl-[3,4′-bipyridine]-3′-carboxamide]
≤ 200 | COc1nnc(NC(=O)c2cnc(C)cc2-c2ccc(F)c(C(F)(F)F)c2)s1 [Example 450, 4-[4-fluoro-3-(trifluoromethyl)phenyl]-N-(5-methoxy-1,3,4-thiadiazol-2-yl)-6-methylpyridine-3-carboxamide]
500 to 1000 | COc1nnc(NC(=O)c2cnc(C)cc2-c2cc(F)cc(F)c2)s1 [Example 337, 4-(3,5-difluorophenyl)-N-(5-methoxy-1,3,4-thiadiazol-2-yl)-6-methylpyridine-3-carboxamide]
1000 to 10000 | COc1nnc(NC(=O)c2cnc(C)cc2-c2cccc(C(=O)O)c2)s1 [Example 326, 3-(5-((5-methoxy-1,3,4-thiadiazol-2-yl)carbamoyl)-2-methylpyridin-4-yl)benzoic acid]
1000 to 10000 | COc1nnc(NC(=O)c2cnc(C)cc2-c2ccc(OC(F)(F)F)cc2)s1 [Example 376, N-(5-methoxy-1,3,4-thiadiazol-2-yl)-6-methyl-4-[4-(trifluoromethoxy)phenyl]pyridine-3-carboxamide]
500 to 1000 | COc1nnc(NC(=O)c2cnc(C)cc2-c2csc3cnccc23)s1 [Example 425, N-(5-methoxy-1,3,4-thiadiazol-2-yl)-6-methyl-4-{thieno[2,3-c]pyridin-3-yl}pyridine-3-carboxamide]
1000 to 10000 | COc1nnc(NC(=O)c2cnc(C)cc2-c2ccc(NS(C)(=O)=O)cc2)s1 [Example 387, 4-(4-methanesulfonamidophenyl)-N-(5-methoxy-1,3,4-thiadiazol-2-yl)-6-methylpyridine-3-carboxamide]
≤ 200 | COc1nnc(NC(=O)c2cc(N3CCC3)ncc2-c2cc(Cl)ncc2OC)s1 [Example 323, 6-(azetidin-1-yl)-2′-chloro-5′-methoxy-N-(5-methoxy-1,3,4-thiadiazol-2-yl)-[3,4′-bipyridine]-4-carboxamide]

Same assay, conditions: Table 4; Pol theta (1-899) 5 nM, ATP, dT50 ssDNA

IC50 [nM] | SMILES
≤ 200 | COc1cnc(Cl)cc1-c1cc(C)ncc1C(=O)Nc1nnc(O[C@H]2CC[C@H](O)CC2)s1 (single isomer, unassigned) [Example 27, 2′-chloro-N-(5-(((1r,4r)-4-hydroxycyclohexyl)oxy)-1,3,4-thiadiazol-2-yl)-5′-methoxy-6-methyl-[4,4′-bipyridine]-3-carboxamide]
≤ 200 | COc1nnc(NC(=O)c2cnc(C)cc2-c2c(F)cccc2OC(F)F)s1 [Example 32, 4-(2-(difluoromethoxy)-6-fluorophenyl)-N-(5-methoxy-1,3,4-thiadiazol-2-yl)-6-methylnicotinamide]
500 to 1000 | COc1nnc(NC(=O)c2cnc(C)cc2-c2cc(Cl)ncc2CO)s1 [Example 72, 2′-chloro-5′-(hydroxymethyl)-N-(5-methoxy-1,3,4-thiadiazol-2-yl)-6-methyl-(4,4′-bipyridine)-3-carboxamide]
500 to 1000 | COc1nnc(NC(=O)c2cnc(C)cc2-c2c(Cl)cccc2Cl)s1 [Example 34, 4-(2,6-dichlorophenyl)-N-(5-methoxy-1,3,4-thiadiazol-2-yl)-6-methylnicotinamide]

SMILES | IC50 [nM]
COc1cnc(Cl)cc1-c1cc(C)ncc1C(=O)Nc1nnc(OC2CCC2)s1 [Example 11, 2′-chloro-N-(5-cyclobutoxy-1,3,4-thiadiazol-2-yl)-5′-methoxy-6-methyl-(4,4′-bipyridine)-3-carboxamide] | ≤ 200

Same assay, conditions: Table 5; Pol theta (1-899) 5 nM, ATP, dT50 ssDNA

IC50 [nM] | SMILES
≤ 200 | COc1cnc(Cl)cc1-c1cc(C)ncc1C(=O)Nc1nnc(O[C@H]2CC[C@@H](C(C)(C)O)CC2)s1 [Example 175, 2′-chloro-N-(5-(((1s,4s)-4-(2-hydroxypropan-2-yl)cyclohexyl)oxy)-1,3,4-thiadiazol-2-yl)-5′-methoxy-6-methyl-(4,4′-bipyridine)-3-carboxamide]
200 to 500 | COc1cnc(Cl)cc1-c1cc(C)ncc1C(=O)Nc1nnc(O[C@@H]2CCC[C@](C)(O)C2)s1 (single isomer, unassigned) [Example 180]
≤ 200 | COc1cnc(Cl)cc1-c1cc(C)ncc1C(=O)Nc1nnc(O[C@H]2CC[C@@H](OC)C2)s1 (racemic) [Example 150, rac-2′-chloro-5′-methoxy-N-(5-(((1R,3S)-3-methoxycyclopentyl)oxy)-1,3,4-thiadiazol-2-yl)-6-methyl-(4,4′-bipyridine)-3-carboxamide]
≤ 200 | COc1cnc(Cl)cc1-c1cc(C)ncc1C(=O)Nc1nnc(O[C@H]2CC[C@@H]([C@H](C)O)CC2)s1 (single isomer, unassigned) [Example 213]
≤ 200 | COc1cnc(Cl)cc1-c1cc(C)ncc1C(=O)Nc1nnc(O[C@H]2CC[C@@](C)(O)CC2)s1 (single isomer, unassigned) [Example 141, 2′-chloro-N-(5-(((1s,4s)-4-hydroxy-4-methylcyclohexyl)oxy)-1,3,4-thiadiazol-2-yl)-5′-methoxy-6-methyl-(4,4′-bipyridine)-3-carboxamide]
≤ 200 | COc1cnc(Cl)cc1-c1cc(C)ncc1C(=O)Nc1nnc(O[C@@H]2CCO[C@H]2C)s1 (single isomer, unassigned) [Example 116]
≤ 200 | COc1cnc(Br)cc1-c1cc(C)ncc1C(=O)Nc1nnc(O[C@H]2CC[C@](C)(O)CC2)s1 (single isomer, unassigned) [Example 225, 2′-bromo-N-(5-(((1r,4r)-4-hydroxy-4-methylcyclohexyl)oxy)-1,3,4-thiadiazol-2-yl)-5′-methoxy-6-methyl-(4,4′-bipyridine)-3-carboxamide]
≤ 200 | COc1cnc(Cl)c(F)c1-c1cc(C)ncc1C(=O)Nc1nnc(O[C@H]2CC[C@H](O)CC2)s1 [Example 211, 2′-chloro-3′-fluoro-N-(5-(((1r,4r)-4-hydroxycyclohexyl)oxy)-1,3,4-thiadiazol-2-yl)-5′-methoxy-6-methyl-(4,4′-bipyridine)-3-carboxamide]
≤ 200 | COc1cnc(Cl)c(F)c1-c1cc(C)ncc1C(=O)Nc1nnc(O[C@H]2COC3(CC3)C2)s1 (single isomer, unassigned) [Example 210]
≤ 200 | Cc1cc(-c2cc(Cl)ncc2OC(F)F)c(C(=O)Nc2nnc(O[C@@H]3COC4(CC4)C3)s2)cn1 (single isomer, unassigned) [Example 232]

SMILES | IC50 [nM]
COc1cnc(Cl)cc1-c1cc(C)ncc1C(=O)Nc1nnc(O[C@H]2CC[C@H]2O)s1 (racemic) [Example 112, rac-2′-chloro-N-(5-((1R,2S)-2-hydroxycyclobutoxy)-1,3,4-thiadiazol-2-yl)-5′-methoxy-6-methyl-(4,4′-bipyridine)-3-carboxamide] | 200 to 500

Same assay, conditions: Table 5; values given as bound; Pol theta (1-899) 5 nM, ATP, dT50 ssDNA

IC50 [nM] | SMILES
> 10000 | COc1nnc(NC(=O)c2cn(-c3cc(Cl)ncc3OC)nn2)s1 [Example 234, 1-(2-chloro-5-methoxypyridin-4-yl)-N-(5-methoxy-1,3,4-thiadiazol-2-yl)-1H-1,2,3-triazole-4-carboxamide]
